What was measured:
[1] = biological target: T1, Cbl-b (Homo sapiens, UniProt Q13191); assay: Cbl-b probe displacement HTRF binding assay; settings: 0.4 nM biotinylated Cbl-b, 150 nM BODIPY probe
T1 construct: biotin (biotinylated)
Summary of the method: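 Probe-displacement HTRF in Hepes/NaCl/Triton/TCEP/BSA buffer at room temperature: compound dilutions (to 10 μM) incubated 60 min with 0.4 nM biotin-Cbl-b, 150 nM BODIPY probe added for 15 min, Tb-streptavidin read. Signal normalised to DMSO and no-protein controls; IC50 from four-parameter curve.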

[2] = test system: Jurkat cells; assay: IL-2 secretion assay in CD3/CD28-activated Jurkat cells (AlphaLISA); type: cell-based, human; settings: CD3/CD28 T Cell Activator, 24 h, IL-2 AlphaLISA
Summary of the method: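 IL-2 release quantified by AlphaLISA in supernatants after 24 h CD3/CD28 activation at 37° C. Compounds, 10 μM to 300 pM final in 1:2 steps, were added to 50,000 Jurkat cells/well 1 h before activation; 4-parameter fit gave EC50.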

T1 sequence (Q13191 whole entry, species assumed): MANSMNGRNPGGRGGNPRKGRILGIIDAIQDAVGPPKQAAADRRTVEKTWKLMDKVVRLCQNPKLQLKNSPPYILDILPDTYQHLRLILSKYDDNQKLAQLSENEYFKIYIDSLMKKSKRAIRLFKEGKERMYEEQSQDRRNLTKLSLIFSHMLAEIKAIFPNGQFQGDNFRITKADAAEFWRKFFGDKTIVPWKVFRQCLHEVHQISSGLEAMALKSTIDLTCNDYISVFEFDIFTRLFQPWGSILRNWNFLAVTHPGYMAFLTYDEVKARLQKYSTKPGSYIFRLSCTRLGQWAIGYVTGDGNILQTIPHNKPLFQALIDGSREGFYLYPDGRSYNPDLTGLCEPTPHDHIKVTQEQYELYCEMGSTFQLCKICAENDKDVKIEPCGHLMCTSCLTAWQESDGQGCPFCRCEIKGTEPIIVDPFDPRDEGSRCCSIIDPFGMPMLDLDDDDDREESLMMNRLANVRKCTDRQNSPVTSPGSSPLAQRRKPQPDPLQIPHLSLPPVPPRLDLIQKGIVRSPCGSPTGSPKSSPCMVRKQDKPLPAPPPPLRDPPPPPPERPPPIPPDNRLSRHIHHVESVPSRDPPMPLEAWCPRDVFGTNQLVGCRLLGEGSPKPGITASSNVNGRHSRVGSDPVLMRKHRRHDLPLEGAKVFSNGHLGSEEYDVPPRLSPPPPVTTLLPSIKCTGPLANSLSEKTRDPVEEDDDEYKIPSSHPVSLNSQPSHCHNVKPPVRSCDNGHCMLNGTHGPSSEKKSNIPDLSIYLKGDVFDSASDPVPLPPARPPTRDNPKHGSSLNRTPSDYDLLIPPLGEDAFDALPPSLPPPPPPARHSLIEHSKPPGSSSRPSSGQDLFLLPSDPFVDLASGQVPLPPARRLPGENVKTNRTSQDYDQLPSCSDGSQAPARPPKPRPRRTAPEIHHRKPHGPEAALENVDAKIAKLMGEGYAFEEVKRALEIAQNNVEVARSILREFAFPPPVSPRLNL

Compound | IC50 [1] | EC50 ([2]; Homo sapiens) | EC50 [2]
Cn1cnnc1-c1cc(F)ccc1-c1cc(C2CC2)nc(-n2cc(C#N)c3cc([C@@H](N)C(F)(F)F)[nH]c3c2=O)c1 [Example 97, 2-[(R)-1-amino-2,2,2-trifluoroethyl]-6-{6-cyclopropyl-4-[4-fluoro-2-(4-methyl-4H-1,2,4-triazol-3-yl)phenyl]-2-pyridyl}-7-oxo-1,6-dihydro-1,6-diaza-4-indenecarbonitrile] | < 100 nM | 100 to 1000 nM | 
C[C@H]1CN(Cc2cc3c(C#N)cn(-c4cc(-c5c(F)cc(F)cc5-c5nccn5C)cc(C5CC5)n4)c(=O)c3[nH]2)CCCO1 [Example 88, 2-{1[(S)-2-methyl-1,4-oxazepan-4-yl]methyl}-6-{6-cyclopropyl-4-[4,6-difluoro-2-(1-methyl-2-imidazolyl)phenyl]-2-pyridyl}-7-oxo-1,6-dihydro-1,6-diaza-4-indenecarbonitrile] | < 100 nM | < 100 nM | 
COCNCC1=CC2C(N1)C(=O)N(c1cc(-c3ccc(F)cc3-n3nncc3C)cc(C3CC3)n1)CC2C(F)(F)F (stereo not drawn) [Example 130, 6-[6-cyclopropyl-4-[4-fluoro-2-(5-methyltriazol-1-yl)phenyl]pyridin-2-yl]-2-[(methoxymethylamino)methyl]-4-(trifluoromethyl)-3a,4,5,7a-tetrahydro-1H-pyrrolo[2,3-c]pyridin-7-one] | < 100 nM |  | < 100 nM
Cc1ccnnc1-c1cc(F)ccc1-c1cc(C2CC2)nc(-n2cnc3cc(CN4CCO[C@H](C)C4)[nH]c3c2=O)c1 [Example 106, 3-[6-cyclopropyl-4-[4-fluoro-2-(4-methylpyridazin-3-yl)phenyl]pyridin-2-yl]-6-[[(2R)-2-methylmorpholin-4-yl]methyl]-5H-pyrrolo[3,2-d]pyrimidin-4-one] | < 100 nM | < 100 nM | 
CCn1ccnc1-c1cc(F)ccc1-c1cc(C2CC2)nc(-n2cc(C3CC3)c3cc(CN4CCO[C@H](C)C4)[nH]c3c2=O)c1 [Example 64, 2-{[(R)-2-methyl-4-morpholinyl]methyl}-4-cyclopropyl-6-{6-cyclopropyl-4-[2-(1-ethyl-2-imidazolyl)-4-fluorophenyl]-2-pyridyl}-1,6-dihydro-1,6-diaza-7-indenone] | < 100 nM | 100 to 1000 nM | 
Cn1ccnc1-c1cc(F)ccc1-c1cc(C2CC2)nc(-n2cc(C3CC3)c3cc(CN4C[C@H]5C[C@@H]4CO5)[nH]c3c2=O)c1 [Example 60, 2-({(1R,4R)-2-oxa-5-azabicyclo[2.2.1]hept-5-yl}methyl)-4-cyclopropyl-6-{6-cyclopropyl-4-[4-fluoro-2-(1-methyl-2-imidazolyl)phenyl]-2-pyridyl}-1,6-dihydro-1,6-diaza-7-indenone] | < 100 nM | 100 to 1000 nM | 

Now from value to compound, other results behind:

IC50 [1] | EC50 ([2]; Homo sapiens) | Compound | EC50 [2]
< 100 nM | 100 to 1000 nM | Cc1c[nH]nc1-c1cc(C#N)ccc1-c1cc(C2CC2)nc(-n2cc(C3CC3)c3cc(CNCC4(O)CCC4)[nH]c3c2=O)c1 [Example 20, 4-[2-cyclopropyl-6-[4-cyclopropyl-2-[[(1-hydroxycyclobutyl)methylamino]-methyl]-7-oxo-1H-pyrrolo[2,3-c]pyridin-6-yl]pyridin-4-yl]-3-(4-methyl-1H-pyrazol-3-yl)benzonitrile] | 
< 100 nM | < 100 nM | Cn1cnnc1-c1cc(F)ccc1-c1cc(C2CC2)nc(-n2cnc3cc(C(O)C4CCCC4)[nH]c3c2=O)c1 (stereo not drawn) [Example 126, 6-[cyclopentyl(hydroxy)methyl]-3-[6-cyclopropyl-4-[4-fluoro-2-(4-methyl-1,2,4-triazol-3-yl)phenyl]pyridin-2-yl]-5H-pyrrolo[3,2-d]pyrimidin-4-one] | 
< 100 nM | 100 to 1000 nM | Cn1cnnc1-c1cc(F)ccc1-c1cc(C2CC2)nc(-n2cnc3cc(CC4COC4)[nH]c3c2=O)c1 [Example 123, 3-[6-cyclopropyl-4-[4-fluoro-2-(4-methyl-1,2,4-triazol-3-yl)phenyl]pyridin-2-yl]-6-(oxetan-3-ylmethyl)-5H-pyrrolo[3,2-d]pyrimidin-4-one] | 

— patent publication US20250011318A1 (ARCUS BIOSCIENCES, INC., priority 2023, published 2025)
